The values below come from patent publication US11420958B2, “Aryl and heteroaryl substituted indole compounds” (BRISTOL-MYERS SQUIBB COMPANY, priority 2017, dated 2022).

What all share (type): cell-based
One assay deals with human TLR9 (Homo sapiens (Human), UniProt Q9NR96). Kind of assay: TLR9 inhibition reporter assay (HEK-Blue, SEAP). As to conditions: HEK-Blue cells overexpressing human TLR9, ODN2006 5 nM stimulation. The method in brief: (§1)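 Reporter cells, NF-κB/AP-1-driven SEAP; cmpd 0.05 nM–50 μM final, 30 min RT pre-treat; stim gardiquimod 7.5 μM (TLR7), R848 15.9 μM (TLR8), ODN2006 5 nM (TLR9); 22 h 37 °C; % inhibition of SEAP signal.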
Chain of human TLR9 (Q9NR96 26-1032): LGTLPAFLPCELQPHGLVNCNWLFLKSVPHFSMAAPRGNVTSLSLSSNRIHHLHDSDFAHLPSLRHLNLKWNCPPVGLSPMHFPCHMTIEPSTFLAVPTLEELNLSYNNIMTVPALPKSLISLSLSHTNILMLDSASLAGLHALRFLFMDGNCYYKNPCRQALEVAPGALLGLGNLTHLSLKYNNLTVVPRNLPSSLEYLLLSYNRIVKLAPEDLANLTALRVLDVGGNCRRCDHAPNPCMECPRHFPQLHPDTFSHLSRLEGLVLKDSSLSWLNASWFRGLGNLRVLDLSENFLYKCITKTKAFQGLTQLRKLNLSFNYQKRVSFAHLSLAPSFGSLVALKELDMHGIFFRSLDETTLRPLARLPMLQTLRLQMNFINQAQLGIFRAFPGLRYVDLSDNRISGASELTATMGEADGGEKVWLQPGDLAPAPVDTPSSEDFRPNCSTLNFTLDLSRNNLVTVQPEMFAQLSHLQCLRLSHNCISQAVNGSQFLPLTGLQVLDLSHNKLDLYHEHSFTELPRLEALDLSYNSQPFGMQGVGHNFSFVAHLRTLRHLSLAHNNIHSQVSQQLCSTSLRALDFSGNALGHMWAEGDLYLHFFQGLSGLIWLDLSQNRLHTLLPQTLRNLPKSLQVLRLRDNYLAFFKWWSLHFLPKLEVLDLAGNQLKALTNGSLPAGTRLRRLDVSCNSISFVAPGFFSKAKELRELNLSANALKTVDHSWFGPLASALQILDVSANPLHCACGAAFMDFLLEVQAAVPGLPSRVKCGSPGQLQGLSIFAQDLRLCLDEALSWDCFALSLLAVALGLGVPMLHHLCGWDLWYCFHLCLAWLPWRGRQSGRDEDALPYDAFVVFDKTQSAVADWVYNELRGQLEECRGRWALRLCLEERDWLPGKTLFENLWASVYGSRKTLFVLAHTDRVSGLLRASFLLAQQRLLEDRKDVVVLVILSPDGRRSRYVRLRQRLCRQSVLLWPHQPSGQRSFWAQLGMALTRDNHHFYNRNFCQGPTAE
(In general: In a reporter assay the amount or activity of a reporter protein is the signal.)

The next assay has as its target human TLR8 (Homo sapiens (Human), UniProt Q9NR97). Kind of assay: TLR8 inhibition reporter assay (HEK-Blue, SEAP). Particulars: HEK-Blue cells overexpressing human TLR8, R848 15.9 μM stimulation. The gist of the method: as §1
The target in the next assay is human TLR7 (Homo sapiens (Human), UniProt Q9NYK1). Kind of assay: TLR7 inhibition reporter assay (HEK-Blue, SEAP). Particulars: HEK-Blue cells overexpressing human TLR7, gardiquimod 7.5 μM stimulation. The gist of the method:
as §1

Chain of human TLR7 (Q9NYK1 27-1049): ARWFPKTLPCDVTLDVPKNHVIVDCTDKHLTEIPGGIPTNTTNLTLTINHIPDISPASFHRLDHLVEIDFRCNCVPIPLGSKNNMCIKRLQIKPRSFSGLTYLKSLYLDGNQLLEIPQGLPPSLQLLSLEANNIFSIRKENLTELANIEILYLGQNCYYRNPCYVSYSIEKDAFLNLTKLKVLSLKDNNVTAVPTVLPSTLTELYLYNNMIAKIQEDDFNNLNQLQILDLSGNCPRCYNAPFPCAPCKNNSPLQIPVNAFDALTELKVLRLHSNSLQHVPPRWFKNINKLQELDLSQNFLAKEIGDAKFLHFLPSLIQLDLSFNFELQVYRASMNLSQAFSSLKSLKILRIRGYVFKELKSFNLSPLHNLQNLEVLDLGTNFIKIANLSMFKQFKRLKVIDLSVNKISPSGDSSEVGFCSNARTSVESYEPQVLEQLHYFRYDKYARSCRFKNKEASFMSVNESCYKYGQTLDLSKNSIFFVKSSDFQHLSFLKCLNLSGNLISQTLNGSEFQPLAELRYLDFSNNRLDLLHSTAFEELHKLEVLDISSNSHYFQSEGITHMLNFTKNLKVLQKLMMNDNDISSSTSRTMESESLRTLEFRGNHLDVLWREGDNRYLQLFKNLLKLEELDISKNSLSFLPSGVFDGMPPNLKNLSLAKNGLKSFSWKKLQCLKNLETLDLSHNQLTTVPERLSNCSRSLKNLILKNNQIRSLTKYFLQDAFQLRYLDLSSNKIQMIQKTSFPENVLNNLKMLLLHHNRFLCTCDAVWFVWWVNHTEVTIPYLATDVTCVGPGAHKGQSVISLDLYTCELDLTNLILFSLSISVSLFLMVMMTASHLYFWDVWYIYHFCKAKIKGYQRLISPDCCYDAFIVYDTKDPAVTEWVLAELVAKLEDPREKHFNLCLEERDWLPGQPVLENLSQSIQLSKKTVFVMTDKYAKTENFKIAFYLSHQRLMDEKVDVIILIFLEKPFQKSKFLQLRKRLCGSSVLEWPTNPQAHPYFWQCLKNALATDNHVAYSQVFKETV
Chain of human TLR8 (Q9NR97 27-1041): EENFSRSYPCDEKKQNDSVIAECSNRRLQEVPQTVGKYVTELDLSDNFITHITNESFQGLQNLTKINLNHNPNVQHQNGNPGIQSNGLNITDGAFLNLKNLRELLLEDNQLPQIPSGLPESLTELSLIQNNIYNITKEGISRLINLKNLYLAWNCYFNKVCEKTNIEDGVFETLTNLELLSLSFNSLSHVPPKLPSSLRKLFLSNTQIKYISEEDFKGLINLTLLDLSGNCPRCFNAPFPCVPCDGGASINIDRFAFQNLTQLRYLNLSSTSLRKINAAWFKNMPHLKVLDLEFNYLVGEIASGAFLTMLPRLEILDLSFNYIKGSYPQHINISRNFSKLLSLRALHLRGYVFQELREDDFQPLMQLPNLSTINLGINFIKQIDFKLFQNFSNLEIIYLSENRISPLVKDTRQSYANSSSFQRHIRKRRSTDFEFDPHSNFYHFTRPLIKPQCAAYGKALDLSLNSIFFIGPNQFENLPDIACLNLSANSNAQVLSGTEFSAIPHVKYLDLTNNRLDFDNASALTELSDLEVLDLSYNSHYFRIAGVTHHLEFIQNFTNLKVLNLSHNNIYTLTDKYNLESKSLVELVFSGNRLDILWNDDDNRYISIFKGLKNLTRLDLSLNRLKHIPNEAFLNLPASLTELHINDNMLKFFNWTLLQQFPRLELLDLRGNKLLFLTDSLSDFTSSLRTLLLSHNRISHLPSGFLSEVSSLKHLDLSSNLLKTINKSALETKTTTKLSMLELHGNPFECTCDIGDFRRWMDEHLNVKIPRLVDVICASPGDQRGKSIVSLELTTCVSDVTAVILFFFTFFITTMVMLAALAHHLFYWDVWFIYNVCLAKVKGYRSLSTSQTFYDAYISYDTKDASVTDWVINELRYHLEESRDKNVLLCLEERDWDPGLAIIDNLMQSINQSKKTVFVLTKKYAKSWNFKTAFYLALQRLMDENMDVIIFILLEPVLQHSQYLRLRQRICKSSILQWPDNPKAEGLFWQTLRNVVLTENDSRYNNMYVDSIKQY

Broadly, the IC50 is the concentration that gives 50% inhibition. High values mean weaker potency in that assay, low ones greater potency in that assay. As to `Cc1cc(-c2[nH]c3ccc(-c4nc(C(=O)NC5CCN(C(C)C)CC5)co4)cc3c2C(C)C)ccn1` [Example 173, 2-(3-isopropyl-2-(2-methylpyridin-4-yl)-1H-indol-5-yl)-N-(1-isopropylpiperidin-4-yl)oxazole-4-carboxamide], the values for the 50% inhibitory concentration (IC50) against human TLR9, against human TLR8 and against human TLR7 were 1.84 µM, 0.0029 µM and 0.046 µM, respectively.
As for `Cc1cc(-c2[nH]c3ccc(-c4nnc(N)o4)cc3c2C(C)C)ccn1` [Example 174, 5-(3-isopropyl-2-(2-methylpyridin-4-yl)-1H-indol-5-yl)-1,3,4-oxadiazol-2-amine], the IC50 was 44.3 µM at human TLR9, 0.014 µM at human TLR8 and 0.053 µM on human TLR7.
Regarding `CNC(=O)CN1CCCC(c2nnc(-c3ccc4[nH]c(-c5ccnc(C)c5)c(C(C)C)c4c3)[nH]2)C1` (stereo not drawn) [Example 175, 2-(3-(5-(3-isopropyl-2-(2-methylpyridin-4-yl)-1H-indol-5-yl)-4H-1,2,4-triazol-3-yl)piperidin-1-yl)-N-methylacetamide], the half-maximal inhibitory concentration (IC50) against human TLR9 is above 50 µM; against human TLR8, 0.0074 µM; on human TLR7, 0.56 µM.
Take `Cc1cc(-c2[nH]c3ccc(-c4nnc(C5CCCN(C(=O)CN(C)C)C5)[nH]4)cc3c2C(C)C)ccn1` (stereo not drawn) [Example 176, 2-(dimethylamino)-1-(3-(5-(3-isopropyl-2-(2-methylpyridin-4-yl)-1H-indol-5-yl)-4H-1,2,4-triazol-3-yl)piperidin-1-yl)ethan-1-one]: the IC50 at human TLR9 was found to be 1.92 µM; on human TLR8, 0.0063 µM; against human TLR7 it was 0.051 µM.
For `CC(C)c1c(-c2ccnc3[nH]ncc23)[nH]c2ccc(-c3ccnc4[nH]ncc34)cc12` [Example 177, 4,4′-(3-isopropyl-1H-indole-2,5-diyl)bis(1H-pyrazolo[3,4-b]pyridine)], in that order: 24.1 µM, 0.0037 µM and 0.045 µM.
As to `Cc1cc(-c2[nH]c3ccc(-c4nnc(C5CCCNC5)[nH]4)cc3c2C(C)C)ccn1` (stereo not drawn) [Example 178, 3-isopropyl-2-(2-methylpyridin-4-yl)-5-(5-(piperidin-3-yl)-4H-1,2,4-triazol-3-yl)-1H-indole], the IC50 on human TLR9 came to 3.99 µM; at human TLR8, 0.012 µM; on human TLR7 it was 0.22 µM.
For `Cc1cc(-c2[nH]c3ccc(-c4nnc(C5CCCC(N)C5)o4)cc3c2C(C)C)ccn1` (stereo not drawn) [Example 179, 3-(5-(3-isopropyl-2-(2-methylpyridin-4-yl)-1H-indol-5-yl)-1,3,4-oxadiazol-2-yl)cyclohexan-1-amine], in that order: 2.79 µM, 0.006 µM and 0.98 µM.
For the molecule `Cc1cc(-c2[nH]c3ccc(-c4nnc(C5CCCN(CC(=O)N(C)C)C5)[nH]4)cc3c2C(C)C)ccn1` (stereo not drawn) [Example 180, 2-(3-(5-(3-isopropyl-2-(2-methylpyridin-4-yl)-1H-indol-5-yl)-4H-1,2,4-triazol-3-yl)piperidin-1-yl)-N,N-dimethylacetamide], the IC50 against human TLR9 was 0.872 µM; against human TLR8, 0.0022 µM; on human TLR7 it was 0.031 µM.
In the case of `CC(C)c1c(-c2ccnc3n[nH]cc23)[nH]c2ccc(-c3nccs3)cc12` [Example 181, 2-(3-isopropyl-2-(2H-pyrazolo[3,4-b]pyridin-4-yl)-1H-indol-5-yl)thiazole], the IC50 on human TLR9 turned out to be 35.1 µM; on human TLR8 it was 0.036 µM; on human TLR7 it was 0.68 µM.
The corresponding values for `CC(C)c1c(-c2ccnc3[nH]ncc23)[nH]c2ccc(-c3nnc(CC4CCCNC4)o3)cc12` (stereo not drawn) [Example 182, 2-(3-isopropyl-2-(1H-pyrazolo[3,4-b]pyridin-4-yl)-1H-indol-5-yl)-5-(piperidin-3-ylmethyl)-1,3,4-oxadiazole] are 0.595 µM, 0.044 µM and 0.332 µM.
Take `CC(C)c1c(-c2ccnc3n[nH]cc23)[nH]c2ccc(-c3nc(C(=O)NC4CCN(C(C)C)CC4)co3)cc12` [Example 183, 2-(3-isopropyl-2-(2H-pyrazolo[3,4-b]pyridin-4-yl)-1H-indol-5-yl)-N-(1-isopropylpiperidin-4-yl)oxazole-4-carboxamide]: the values for the IC50 at human TLR9, against human TLR8 and against human TLR7 were 0.427 µM, 0.0058 µM and 0.137 µM, respectively.
Turning to `Cc1cc(-c2[nH]c3ccc(-c4nnc(C5CCCNC5)[nH]4)cc3c2C(C)C)ccn1` (stereo not drawn) [Example 184, 3-isopropyl-2-(2-methylpyridin-4-yl)-5-(5-(piperidin-3-yl)-4H-1,2,4-triazol-3-yl)-1H-indole], the figures for the IC50 on human TLR9, on human TLR8 and against human TLR7 were 7.48 µM, 0.077 µM and 0.071 µM, respectively.
Regarding `Cc1cc(-c2[nH]c3ccc(-c4nnc(C5CCN(CC(=O)N(C)C)CC5)[nH]4)cc3c2C(C)C)ccn1` [Example 185, 2-(4-(5-(3-isopropyl-2-(2-methylpyridin-4-yl)-1H-indol-5-yl)-4H-1,2,4-triazol-3-yl)piperidin-1-yl)-N,N-dimethylacetamide], the IC50 against human TLR9 stood at 7.59 µM; at human TLR8, 0.0033 µM; at human TLR7 it was 0.084 µM.
For the molecule `Cc1cc(-c2[nH]c3ccc(-c4nnc(C5CCN(C(=O)CN(C)C)CC5)[nH]4)cc3c2C(C)C)ccn1` [Example 186, 2-(dimethylamino)-1-(4-(5-(3-isopropyl-2-(2-methylpyridin-4-yl)-1H-indol-5-yl)-4H-1,2,4-triazol-3-yl)piperidin-1-yl)ethan-1-one], the half-inhibitory concentration (IC50) is 1.5 µM against human TLR9, 0.016 µM on human TLR8 and 0.028 µM at human TLR7.
With `Cc1cc(-c2[nH]c3ccc(-c4nnc(C5CCN(C(C)C)CC5)[nH]4)cc3c2C(C)C)ccn1` [Example 187, 3-isopropyl-5-(5-(1-isopropylpiperidin-4-yl)-4H-1,2,4-triazol-3-yl)-2-(2-methylpyridin-4-yl)-1H-indole], the concentration for half-maximal inhibition (IC50) against human TLR9 came to 4.1 µM; against human TLR8, 0.0067 µM; against human TLR7, 0.07 µM.
`Cc1cc(-c2[nH]c3ccc(-c4nnc(C5CCCN(C(C)C)C5)[nH]4)cc3c2C(C)C)ccn1` (stereo not drawn) [Example 188, 3-isopropyl-5-(5-(1-isopropylpiperidin-3-yl)-4H-1,2,4-triazol-3-yl)-2-(2-methylpyridin-4-yl)-1H-indole]: the figures for the 50% inhibitory concentration (IC50) at human TLR9, against human TLR8 and at human TLR7 were 0.328 µM, 0.003 µM and 0.028 µM, respectively.
On to `Cc1cc(-c2[nH]c3ccc(-c4nc(C5CCNCC5)c[nH]4)cc3c2C(C)C)ccn1` [Example 189, 3-isopropyl-2-(2-methylpyridin-4-yl)-5-(4-(piperidin-4-yl)-1H-imidazol-2-yl)-1H-indole], for which the IC50 was determined as 0.921 µM against human TLR9, 0.043 µM on human TLR8 and 0.175 µM against human TLR7.
On to `Cc1cc(-c2[nH]c3ccc(-c4nnc(NC(=O)CN(C)C)o4)cc3c2C(C)C)ccn1` [Example 190, 2-(dimethylamino)-N-(5-(3-isopropyl-2-(2-methylpyridin-4-yl)-1H-indol-5-yl)-1,3,4-oxadiazol-2-yl)acetamide], for which the IC50 turned out to be 48.5 µM at human TLR9, 0.0091 µM at human TLR8 and 0.258 µM against human TLR7.
Consider `Cc1cc(-c2[nH]c3ccc(-c4nc(C(=O)NC5CCN(C(C)C)CC5)c(C)o4)cc3c2C(C)C)ccn1` [Example 191, 2-(3-isopropyl-2-(2-methylpyridin-4-yl)-1H-indol-5-yl)-N-(1-isopropylpiperidin-4-yl)-5-methyloxazole-4-carboxamide], for which the half-maximal inhibitory concentration (IC50) turned out to be 3.41 µM at human TLR9, 0.013 µM against human TLR8 and 0.113 µM on human TLR7.
Consider `Cc1cc(-c2[nH]c3ccc(-c4nc(C)cs4)cc3c2C(C)C)ccn1` [Example 192, 2-(3-isopropyl-2-(2-methylpyridin-4-yl)-1H-indol-5-yl)-4-methylthiazole], for which the IC50 was found to be 2.88 µM against human TLR9, 0.213 µM at human TLR8 and 1 µM against human TLR7.
With `Cc1cc(-c2[nH]c3ccc(-c4cnc(N)nc4)cc3c2C(C)C)ccn1` [Example 193, 5-(3-isopropyl-2-(2-methylpyridin-4-yl)-1H-indol-5-yl)pyrimidin-2-amine], the figures for the IC50 at human TLR9, against human TLR8 and against human TLR7 were above 50 µM, 0.071 µM and 0.264 µM, respectively.
Turning to `Cc1cc(-c2[nH]c3ccc(-c4nc(C(=O)NCC5CCNC5)c(C)o4)cc3c2C(C)C)ccn1` (stereo not drawn) [Example 194, 2-(3-isopropyl-2-(2-methylpyridin-4-yl)-1H-indol-5-yl)-5-methyl-N-(pyrrolidin-3-ylmethyl)oxazole-4-carboxamide], the IC50 against human TLR9 amounted to 11.7 µM; at human TLR8, 0.086 µM; at human TLR7 it was 0.112 µM.
On to `CC(C)c1c(-c2ccnc3[nH]ncc23)[nH]c2ccc(-c3nnc(C(=O)NCCN(C)C)s3)cc12` [Example 195, N-(2-(dimethylamino)ethyl)-5-(3-isopropyl-2-(1H-pyrazolo[3,4-b]pyridin-4-yl)-1H-indol-5-yl)-1,3,4-thiadiazole-2-carboxamide], for which the IC50 on human TLR9 was 0.668 µM; on human TLR8, 0.0025 µM; on human TLR7, 0.018 µM.
On to `Cc1cc(-c2[nH]c3ccc(-c4nnc(C5CCNCC5)[nH]4)cc3c2C(C)C)ccn1` [Example 196, 3-isopropyl-2-(2-methylpyridin-4-yl)-5-(5-(piperidin-4-yl)-4H-1,2,4-triazol-3-yl)-1H-indole], for which the half-maximal inhibitory concentration (IC50) is 6.97 µM against human TLR9, 0.083 µM against human TLR8 and 0.277 µM at human TLR7.
Regarding `Cc1cc(-c2[nH]c3ccc(-c4nc(C(=O)NCC5CCNC5)co4)cc3c2C(C)C)ccn1` (stereo not drawn) [Example 197, 2-(3-isopropyl-2-(2-methylpyridin-4-yl)-1H-indol-5-yl)-N-(pyrrolidin-3-ylmethyl)oxazole-4-carboxamide], the 50% inhibitory concentration (IC50) was 13 µM against human TLR9, 0.061 µM against human TLR8 and 0.44 µM at human TLR7.
